“Also recorded” adds a separate entry of the source.
Legend:
[1] = test system: peptide-pulsed TISI cells; test: IFN-gamma ELISA assay of CTL lines and clone (HLA-A*2402); format: cell-based, human; conditions: for IFN-gamma production of CTL lines (ELISA): CTL line stimulated with peptide, target cells pulsed with peptide vs without peptide pulse
Procedure: CTLs were expanded in culture using the method similar to the one described by Riddell et al. (Walter E A et al., N Engl J Med 1995 Oct. 19, 333(16): 1038-44; Riddell SR et al., Nat Med 1996 February, 2(2): 216-23). A total of 5×10^4 CTLs were suspended in 25 ml of AIM-V/5% AS medium with 2 kinds of human B-lymphoblastoid cell lines, inactivated by Mitomycin C, in the presence of 40 ng/ml of anti-CD3 monoclonal antibody (Pharmingen). One day after initiating the cultures, 120 IU/ml of IL-2 were added to the cultures. The cultures were fed with fresh AIM-V/5% AS medium containing 30 IU/ml of IL-2 on days 5, 8 and 11 (Tanaka H et al., Br J Cancer 2001 Jan. 5, 84(1): 94-9; Umano Y et al., Br J Cancer 2001 Apr. 20, 84(8): 1052-7; Uchida N et al., Clin Cancer Res 2004 Dec. 15, 10(24): 8577-86; Suda T et al., Cancer Sci 2006 May, 97(5): 411-9; Watanabe T et al., Cancer Sci 2005 August, 96(8): 498-506).
The dilutions were made to have 0.3, 1, and 3 CTLs/well in 96 round-bottomed micro titer plate (Nalge Nunc International). CTLs were cultured with 1×10^4 cells/well of 2 kinds of human B-lymphoblastoid cell lines, 30 ng/ml of anti-CD3 antibody, and 125 U/ml of IL-2 in a total of 150 micro-l/well of AIM-V Medium containing 5% AS. 50 micro-l/well of IL-2 were added to the medium 10 days later so to reach a final concentration of 125 U/ml IL-2. CTL activity was tested on the 14th day, and CTL clones were expanded using the same method as described above (Uchida N et al., Clin Cancer Res 2004 Dec. 15, 10(24): 8577-86; Suda T et al., Cancer Sci 2006 May, 97(5): 411-9; Watanabe T et al., Cancer Sci 2005 August, 96(8): 498-506).
Specifically, peptide-pulsed TISI (1×10^4 cells/well) was prepared as stimulator cells. Cultured cells in 48 wells were used as responder cells. IFN-gamma ELISPOT assay and IFN-gamma ELISA assay were performed under manufacture procedure.

[2] = test system: COS7 cells transfected with HJURP and HLA-A*2402; test: Specific CTL activity against target cells exogenously expressing HJURP and HLA-A*2402; format: cell-based, African green monkey; conditions: CTL line raised by the peptide as effector cells; for Specific CTL activity against control COS7 cells expressing either HLA-A*2402 or HJURP: controls
Text: The cDNA encoding an open reading frame of target genes or HLA-A*2402 was amplified by PCR. The PCR-amplified products were cloned into a vector and pIRES vector (Clontech Laboratories, Inc., Cat. No. 631605). The plasmids were transfected into COS7, which is the target genes and HLA-A24 negative cell line, using lipofectamine 2000 (Invitrogen) according to the manufacturer's recommended procedures. After 2 days from transfection, the transfected cells were harvested with versene (Invitrogen) and used as the target cells (5×10^4 cells/well) for CTL activity assay.
The established CTL line raised against these peptides were examined for their ability to recognize target cells that endogenously express HJURP and HLA-A*2402 gene. […] COS7 cells transfected with either full length of HJURP genes or HLA-A*2402 were prepared as controls.

[3] = test system: peptide-pulsed TISI cells; test: In vitro CTL induction, IFN-gamma ELISPOT assay (HLA-A*2402); format: cell-based, human; conditions: for Peptide specific CTL activity, IFN-gamma production (ELISPOT): CTLs from HLA-A*2402 positive donor stimulated with peptide-pulsed DCs, against peptide-pulsed target cells vs control; for CTL inducibility / specific CTL activity of CTLs stimulated with the peptide (summary statement): HLA-A24 restricted peptides
Text: Monocyte-derived dendritic cells (DCs) were used as antigen-presenting cells (APCs) to induce cytotoxic T lymphocyte (CTL) responses against peptides presented on human leukocyte antigen (HLA). DCs were generated in vitro as described elsewhere (Nakahara S et al., Cancer Res 2003 Jul. 15, 63(14): 4112-8). Specifically, peripheral blood mononuclear cells (PBMCs) isolated from a normal volunteer (HLA-A*2402 positive) by Ficoll-Plaque (Pharmacia) solution were separated by adherence to a plastic tissue culture dish (Becton Dickinson) so as to enrich them as the monocyte fraction. The monocyte-enriched population was cultured in the presence of 1,000 U/ml of granulocyte-macrophage colony-stimulating factor (GM-CSF) (R&D System) and 1,000 U/ml of interleukin (IL)-4 (R&D System) in AIM-V Medium (Invitrogen) containing 2% heat-inactivated autologous serum (AS). After 7 days of culture, the cytokine-induced DCs were pulsed with 20 micro-g/ml of each of the synthesized peptides in the presence of 3 micro-g/ml of beta 2-microglobulin for 3 hrs at 37 degrees C. in AIM-V Medium. The generated cells appeared to express DC-associated molecules, such as CD80, CD83, CD86 and HLA class II, on their cell surfaces (data not shown). These peptide-pulsed DCs were then inactivated by X-irradiation (20 Gy) and mixed at a 1:20 ratio with autologous CD8+ T cells, obtained by positive selection with CD8 Positive Isolation Kit (Dynal). These cultures were set up in 48-well plates (Corning); each well contained 1.5×10^4 peptide-pulsed DCs, 3×10^5 CD8+ T cells and 10 ng/ml of IL-7 (R&D System) in 0.5 ml of AIM-V/2% AS medium. Three days later, these cultures were supplemented with IL-2 (CHIRON) to a final concentration of 20 IU/ml. On days 7 and 14, the T cells were further stimulated with the autologous peptide-pulsed DCs. The DCs were prepared each time by the same way described above. CTL was tested against peptide-pulsed TISI cells after the 3rd round of peptide stimulation on day 21 (Tanaka H et al., Br J Cancer 2001 Jan. 5, 84(1): 94-9; Umano Y et al., Br J Cancer 2001 Apr. 20, 84(8): 1052-7; Uchida N et al., Clin Cancer Res 2004 Dec. 15, 10(24): 8577-86; Suda T et al., Cancer Sci 2006 May, 97(5): 411-9; Watanabe T et al., Cancer Sci 2005 August, 96(8): 498-506). […] Specifically, peptide-pulsed TISI (1×10^4 cells/well) was prepared as stimulator cells. Cultured cells in 48 wells were used as responder cells. IFN-gamma ELISPOT assay and IFN-gamma ELISA assay were performed under manufacture procedure.

Row | Sequence | IFN-gamma production of CTL clone (ELISA) ([1]; CTL clone established by limiting dilution, target cells pulsed with peptide vs control, listed as HJURP-A24-9-408) | IFN-gamma production of CTL lines (ELISA) [1] | Specific CTL activity against control COS7 cells expressing either HLA-A*2402 or HJURP [2] | Specific CTL activity against COS7 cells transfected with both HJURP and HLA-A*2402 ([2]; listed as HJURP-A24-9-408) | Peptide specific CTL activity, IFN-gamma production (ELISPOT) [3] | CTL inducibility / specific CTL activity of CTLs stimulated with the peptide (summary statement) ([3]; listed as HJURP-A24-9-408) | Specific CTL activity against COS7 cells transfected with both HJURP and HLA-A*2402 ([2]; listed as HJURP-A24-9-263) | CTL inducibility / specific CTL activity of CTLs stimulated with the peptide (summary statement) [3]
1 | KWLISPVKI [SEQ ID NO: 7] | potent IFN-gamma production | potent IFN-gamma production | no significant specific CTL activity was detected | potent CTL activity; also recorded: specific CTL activity | potent IFN-gamma production | significant and specific CTL activity | – | –
2 | LYAGMLHSM [SEQ ID NO: 4] | – | potent IFN-gamma production | no significant specific CTL activity was detected | – | potent IFN-gamma production | – | potent CTL activity; also recorded: specific CTL activity | significant and specific CTL activity

Source: patent US9896492B2, “HJURP peptides and vaccines including the same” (OncoTherapy Science, Inc., priority 2010, dated 2018)
